Row | SMILES | melting point
1 | CCCC(CCC)c1ccc(Cl)c2nc(Nc3c(C)cc(Cl)cc3C)n(C)c12 [Example 114, 4-Chloro-N-(4-chloro-2,6-dimethylphenyl)-1-methyl-7-(1-propylbutyl)-1H-benzimidazol-2-amine] | 230 to 232 °C
2 | CCC(CC)c1ccc(CN2CCCC2)c2nc(Oc3c(C)cc(Cl)cc3Cl)n(C)c12 [Example 156, 2-(2,4-Dichloro-6-methylphenoxy)-7-(1-ethylpropyl)-1-methyl-4-(pyrrolidin-1-ylmethyl)-1H-benzimidazole] | 107 to 108 °C
3 | CCC(CC)c1ccc(Cl)c2nc(Nc3ccc(OC(F)(F)F)cc3Cl)n(C)c12 [Example 87, 4-Chloro-N-[2-chloro-4-(trifluoromethoxy)phenyl]-7-(1-ethylpropyl)-1-methyl-1H-benzimidazol-2-amine] | 122 to 123 °C
4 | CCCC(CCC)c1ccc(Cl)c2nc(Nc3cc(C(F)(F)F)c(OC)cc3OC)n(C)c12 [Example 123, 4-Chloro-N-[2,4-dimethoxy-5-(trifluoromethyl)phenyl]-1-methyl-7-(1-propylbutyl)-1H-benzimidazol-2-amine] | 196 to 198 °C
5 | CCCC(CCC)c1ccc(Cl)c2nc(Oc3c(C)cc(C)cc3C)n(C)c12 [Example 124, 4-Chloro-2-(mesityloxy)-1-methyl-7-(1-propylbutyl)-1H-benzimidazole] | 165 to 167 °C
6 | CCC(CC)c1ccc(Cl)c2nc(Nc3cnc(N(C)C)cc3C)n(C)c12 [Example 88, N^5-[4-Chloro-7-(1-ethylpropyl)-1-methyl-1H-benzimidazol-2-yl]-N^2,N^2,4-trimethylpyridine-2,5-diamine] | 224 to 226 °C
7 | CCc1cc(CC)n(-c2cccc3nc(Oc4c(C)cc(Cl)cc4Cl)n(C)c23)n1 [Example 162, 2-(2,4-Dichloro-6-methylphenoxy)-7-(3,5-diethyl-1H-pyrazol-1-yl)-1-methyl-1H-benzimidazole] | 115 to 119 °C
8 | CCCC(CCC)c1ccc(Cl)c2nc(Nc3ccc(Cl)cc3OC(F)(F)F)n(C)c12 [Example 94, 4-Chloro-N-[4-chloro-2-(trifluoromethoxy)phenyl]-1-methyl-7-(1-propylbutyl)-1H-benzimidazol-2-amine] | 130 to 132 °C
9 | CCC(CC)c1ccc(C(F)(F)F)c2nc(Nc3ccc(Cl)cc3Br)n(C)c12 [Example 159, N-(2-Bromo-4-chlorophenyl)-7-(1-ethylpropyl)-1-methyl-4-(trifluoromethyl)-1H-benzimidazol-2-amine] | 151 to 152 °C
10 | CCC(CC)c1ccc(Cl)c2nc(Nc3ccc(C(F)(F)F)cc3Cl)n(C)c12 [Example 95, 4-Chloro-N-[2-chloro-4-(trifluoromethyl)phenyl]-7-(1-ethylpropyl)-1-methyl-1H-benzimidazol-2-amine] | 128 to 129 °C
11 | CCCC(CCC)c1ccc(Cl)c2nc(Nc3ccc(Cl)cc3Br)n(C)c12 [Example 92, N-(2-Bromo-4-chlorophenyl)-4-chloro-1-methyl-7-(1-propylbutyl)-1H-benzimidazol-2-amine] | 145 to 147 °C
12 | CCCC(CCC)c1ccc(Cl)c2nc(Nc3cccc4c3CCCC4)n(C)c12 [Example 117, 4-Chloro-1-methyl-7-(1-propylbutyl)-N-(5,6,7,8-tetrahydronaphthalen-1-yl)-1H-benzimidazol-2-amine] | 236 to 238 °C
13 | CCC(CC)c1ccc(Cl)c2nc(Nc3ccc(C)cc3Br)n(C)c12 [Example 86, N-(2-Bromo-4-methylphenyl)-4-chloro-7-(1-ethylpropyl)-1-methyl-1H-benzimidazol-2-amine] | 174 to 176 °C
14 | CCCC(CCC)c1ccc(Cl)c2nc(Nc3ccc(Br)cc3Cl)n(C)c12 [Example 93, N-(4-Bromo-2-chlorophenyl)-4-chloro-1-methyl-7-(1-propylbutyl)-1H-benzimidazol-2-amine] | 145 to 147 °C
15 | CCC(CC)c1ccc(CO)c2nc(Oc3c(C)cc(Cl)cc3Cl)n(C)c12 [Example 154, [2-(2,4-Dichloro-6-methylphenoxy)-7-(1-ethylpropyl)-1-methyl-1H-benzimidazol-4-yl]methanol] | 141 to 143 °C
16 | CCCC(CCC)c1ccc(Cl)c2nc(Oc3c(C)cc(Br)cc3C)n(C)c12 [Example 131, 2-(4-Bromo-2,6-dimethylphenoxy)-4-chloro-1-methyl-7-(1-propylbutyl)-1H-benzimidazole] | 155 to 157 °C
17 | CCCC(CCC)c1ccc(Cl)c2nc(Oc3c(C)cc(Cl)cc3Cl)n(C)c12 [Example 129, 4-Chloro-2-(2,4-dichloro-6-methylphenoxy)-1-methyl-7-(1-propylbutyl)-1H-benzimidazole] | 148 to 150 °C
18 | CCCC(CCC)c1ccc(Cl)c2nc(Oc3c(Cl)cc(Cl)cc3Cl)n(C)c12 [Example 132, 4-Chloro-1-methyl-7-(1-propylbutyl)-2-(2,4,6-trichlorophenoxy)-1H-benzimidazole] | 148 to 150 °C
19 | CCC(CC)c1cc(Br)cc2nc(Nc3c(C)cc(Cl)cc3OC)n(C)c12 [Example 121, 5-Bromo-N-(4-chloro-2-methoxy-6-methylphenyl)-7-(1-ethylpropyl)-1-methyl-1H-benzimidazol-2-amine] | 276 to 278 °C
20 | CCC(CC)c1ccc(C(F)(F)F)c2nc(Oc3c(C)cc(Cl)cc3Cl)n(C)c12 [Example 160, 2-(2,4-Dichloro-6-methylphenoxy)-7-(1-ethylpropyl)-1-methyl-4-(trifluoromethyl)-1H-benzimidazole] | 149 to 151 °C
21 | CCC(CC)c1ccc(C#N)c2nc(Oc3c(C)cc(Cl)cc3Cl)n(C)c12 [Example 151, 2-(2,4-Dichloro-6-methylphenoxy)-7-(1-ethylpropyl)-1-methyl-1H-benzimidazole-4-carbonitrile] | 192 °C
22 | CCCC(O)(CCC)c1cccc2nc(Nc3c(C)cc(C)cc3C)n(CCO)c12 [Example 73, 4-[1-(2-Hydroxyethyl)-2-(mesitylamino)-1H-benzimidazol-7-yl]heptan-4-ol] | 267 to 270 °C
23 | CCCC(CCC)c1ccc(Cl)c2nc(Oc3ccc4c5c3CCN5C(=O)CC4)n(C)c12 [Example 134, 9-{[4-Chloro-1-methyl-7-(1-propylbutyl)-1H-benzimidazol-2-yl]oxy}-1,2,5,6-tetrahydro-4H-pyrrolo[3,2,1-ij]quinolin-4-one] | 150 to 152 °C
24 | COc1cc(Cl)cc(C)c1Nc1nc2c(Cl)ccc(C(O)(C(C)(C)C)C(C)(C)C)c2n1C [Example 106, 3-{4-Chloro-2-[(4-chloro-2-methoxy-6-methylphenyl)amino]-1-methyl-1H-benzimidazol-7-yl}-2,2,4,4-tetramethylpentan-3-ol] | 246 to 248 °C
25 | CCCC(CCC)c1ccc(Cl)c2nc(Nc3c(C)cc(Br)cc3C)n(C)c12 [Example 115, N-(4-Bromo-2,6-dimethylphenyl)-4-chloro-1-methyl-7-(1-propylbutyl)-1H-benzimidazol-2-amine] | 234 to 236 °C
26 | CCC(CC)c1ccc(Cl)c2nc(Oc3c(N(C)C)cc(C)nc3C)n(C)c12 [Example 141, 3-{[4-Chloro-7-(1-ethylpropyl)-1-methyl-1H-benzimidazol-2-yl]oxy}-N,N,2,6-tetramethylpyridin-4-amine] | 175 to 177 °C

Now from value to molecule:

Row | melting point | SMILES
27 | 137 to 139 °C | CCC(CC)c1ccc(Cl)c2nc(Oc3c(C)cc(C)cc3C)n(C)c12 [Example 99, 4-Chloro-7-(1-ethylpropyl)-2-(mesityloxy)-1-methyl-1H-benzimidazole]
28 | 165 to 167 °C | CCC(CC)c1ccc(Cl)c2nc(Oc3c(C)cc(Cl)cc3OC)n(C)c12 [Example 144, 4-Chloro-2-(4-chloro-2-methoxy-6-methylphenoxy)-7-(1-ethyl-1-propyl)-1-methyl-1H-benzimidazole]
29 | 200 to 202 °C | CCC(CC)c1ccc(Cl)c2nc(Oc3c(Cl)cc(N(C)C)cc3Cl)n(C)c12 [Example 142, 3,5-Dichloro-4-{[4-chloro-7-(1-ethylpropyl)-1-methyl-1H-benzimidazol-2-yl]oxy}-N,N-dimethylaniline]
30 | 106 to 107 °C | CCC(CC)c1ccc(OC)c2nc(Oc3ccc(Cl)cc3Br)n(C)c12 [Example 146, 2-(2-Bromo-4-chlorophenoxy)-7-(1-ethylpropyl)-4-methoxy-1-methyl-1H-benzimidazole]
31 | 87 to 89 °C | CCC(CC)c1ccc(Cl)c2nc(Oc3ccc(Cl)cc3Cl)n(C)c12 [Example 98, 4-Chloro-2-(2,4-dichlorophenoxy)-7-(1-ethylpropyl)-1-methyl-1H-benzimidazole]
32 | 168 to 169 °C | CCC(CC)c1ccc(Cl)c2nc(Oc3c(C)cc(Cl)cc3C)n(C)c12 [Example 125, 4-Chloro-2-(4-chloro-2,6-dimethylphenoxy)-7-(1-ethylpropyl)-1-methyl-1H-benzimidazole]
33 | 97 to 99 °C | CCCC(CCC)c1ccc(Cl)c2nc(Oc3ccc(Br)cc3Cl)n(C)c12 [Example 128, 2-(4-Bromo-2-chlorophenoxy)-4-chloro-1-methyl-7-(1-propylbutyl)-1H-benzimidazole]
34 | 130 to 132 °C | CCC(CC)c1ccc(Cl)c2nc(Nc3ccc(Cl)cc3Cl)n(C)c12 [Example 80, 4-Chloro-N-(2,4-dichlorophenyl)-7-(1-ethylpropyl)-1-methyl-1H-benzimidazol-2-amine]
35 | 197 to 198 °C | CCC(CC)c1ccc(Cl)c2nc(Oc3c(C)cc(Br)cc3C)n(C)c12 [Example 137, 2-(4-Bromo-2,6-dimethylphenoxy)-4-chloro-7-(1-ethylpropyl)-1-methyl-1H-benzimidazole]
36 | 119 to 120 °C | CCC(CC)c1ccc(C(F)(F)F)c2nc(Oc3ccc(Cl)cc3Br)n(C)c12 [Example 161, 2-(2-Bromo-4-chlorophenoxy)-7-(1-ethylpropyl)-1-methyl-4-(trifluoromethyl)-1H-benzimidazole]
37 | 114 to 115 °C | CCC(CC)c1ccc(Cl)c2nc(Oc3ccc(Cl)cc3Br)n(C)c12 [Example 135, 2-(2-Bromo-4-chlorophenoxy)-4-chloro-7-(1-ethylpropyl)-1-methyl-1H-benzimidazole]
38 | 161 to 162 °C | CCC(CC)c1ccc(Cl)c2nc(Oc3c(OC)cc(C)cc3OC)n(C)c12 [Example 126, 4-Chloro-2-(2,6-dimethoxy-4-methylphenoxy)-7-(1-ethylpropyl)-1-methyl-1H-benzimidazole]

— patent US8163935B2, “Fused heterocyclic compounds” (Takeda Pharmaceutical Company Limited, priority 2005, dated 2012)
